Laboratory results reported in ChEMBL document CHEMBL4390649, “Fine-tuning the neuroprotective and blood-brain barrier permeability profile of multi-target agents designed to prevent progressive mitochondrial dysfunction” (Eur J Med Chem, 2019).
Calls of active or inactive are those of the source. The rule behind the calls is not given here.

Experiments:
[1] = tested on: SH-SY5Y; experiment: Neuroprotective activity against 6-OHDA-induced toxicity in human SH-SY5Y cells assessed as reduction in cell damage at 10 to 50 uM pretreated for 24 hrs followed by 6-OHDA challenge and measured after 24 hrs by MTT assay relative to control; assay type: functional
[2] = tested on: HepG2; experiment: Cytotoxicity against human HepG2 cells assessed as reduction in cell viability incubated for 48 hrs by resazurin assay relative to control; assay type: cell-based; details: hepg2, 48 h
[3] = tested on: SH-SY5Y; experiment: Cytotoxicity against human SH-SY5Y cells assessed as reduction in cell viability at 10 uM incubated for 24 hrs by MTT assay relative to control; assay type: cell-based
[4] = tested on: SH-SY5Y; experiment: Cytotoxicity against human SH-SY5Y cells assessed as reduction in cell viability incubated for 24 hrs by MTT assay relative to control; assay type: cell-based
[5] = Metal chelating activity assessed as compound-Fe2+ complex formation at 100 uM incubated for 10 mins by ferrozine spectrophotometric assay
[6] = tested on: SH-SY5Y; experiment: Neuroprotective activity against TBHP-induced oxidative damage in human SH-SY5Y cells assessed as increase in cell viability at 50 uM pretreated for 24 hrs followed by TBHP stimulation measured after 4 hrs by MTT assay relative to control; assay type: functional
[7] = Cytotoxicity against human HepG2 cells assessed as cell metabolic activity at 10 uM incubated for 48 hrs by resazurin assay relative to control; assay type: ADME, cell-based; details: read-out: Activity
[8] = Cytotoxicity against human SH-SY5Y cells assessed as cell metabolic activity at 50 uM incubated for 24 hrs by MTT assay relative to control; assay type: ADME, cell-based; details: read-out: Activity
[9] = Cytotoxicity against human SH-SY5Y cells assessed as cell metabolic activity at 10 uM incubated for 24 hrs by MTT assay relative to control; assay type: ADME, cell-based; details: read-out: Activity
[10] = tested on: SH-SY5Y; experiment: Neuroprotective activity against TBHP-induced oxidative damage in human SH-SY5Y cells assessed as increase in cell viability at 10 uM pretreated for 24 hrs followed by TBHP stimulation measured after 4 hrs by MTT assay relative to control; assay type: functional, cell-based
[11] = Cytotoxicity against human HepG2 cells assessed as cell metabolic activity at 50 uM incubated for 48 hrs by resazurin assay relative to control; assay type: ADME, cell-based; details: read-out: Activity
[12] = Antioxidant activity assessed as ABTS radical scavenging activity measured after 15 mins by UV-Visible spectrophotometric based assay; assay type: functional
[13] = tested on: SH-SY5Y; experiment: Induction of ROS generation in human SH-SY5Y cells at 50 uM incubated for 24 hrs by DCFH-DA probe based fluorescence assay relative to control; assay type: functional
[14] = Antioxidant activity assessed as DPPH radical scavenging activity measured after 45 mins by UV-Visible spectrophotometric based assay; assay type: functional
[15] = Electrochemical behavior of the compound assessed as redox potential corrected toward saturated Ag/AgCl reference electrode by cyclic voltammetry
[16] = Electrochemical behavior of the compound assessed as redox potential corrected toward saturated Ag/AgCl reference electrode by differential pulse voltammetry
[17] = tested on: SH-SY5Y; experiment: Neuroprotective activity against 6-OHDA-induced toxicity in human SH-SY5Y cells assessed as reduction in cell damage at 10 uM pretreated for 24 hrs followed by 6-OHDA challenge and measured after 24 hrs by MTT assay relative to control; assay type: functional; parameters: scale not given: the % may be the effect or the level left
[18] = tested on: SH-SY5Y; experiment: Neuroprotective activity against H2O2-induced oxidative damage in human SH-SY5Y cells assessed as reduction in cell damage at 10 uM pretreated for 24 hrs followed by H2O2 challenge measured after 30 mins by MTT assay relative to control; assay type: functional

Row | SMILES | Activity [1] | Activity [2] | Activity [3] | Activity [4] | Activity [5] | Activity [6] | viability at 48 h, 10 µM [7] | viability at 24 h, 50 µM [8] | viability at 24 h, 10 µM [9] | Activity [10] | viability at 48 h, 50 µM [11] | IC50 [12] | Activity [13] | IC50 [14] | Activity [15] | Activity [16] | Activity [17] | Activity [18]
1 | CS(=O)(=O)[O-].O=C(/C=C/c1ccc(O)c(O)c1)NCCCCCCCCCC[P+](c1ccccc1)(c1ccccc1)c1ccccc1 | inactive | Dose-dependent effect | < 45% | Dose-dependent effect | > 80% | inactive | 9.19% | 15.9% | 104% | inactive | 8.24% | 23.5 µM | 132.5% | 25.9 µM | 174 mV | 174 mV | – | –
2 | CS(=O)(=O)[O-].O=C(/C=C/c1cc(O)c(O)c(O)c1)NCCCCCC[P+](c1ccccc1)(c1ccccc1)c1ccccc1 | – | – | – | – | > 80% | inactive | 105% | 94% | 104% | inactive | 94.7% | 12.2 µM | Active | 19 µM | 34 mV | 709 mV | 19.8% | –
3 | CS(=O)(=O)[O-].O=C(CCc1ccc(O)c(O)c1)NCCCCCCCCCC[P+](c1ccccc1)(c1ccccc1)c1ccccc1 | – | Dose-dependent effect | < 45% | Dose-dependent effect | > 80% | inactive | 41.8% | 72.5% | 96% | inactive | 8.22% | 30.1 µM | 96.2% | 59.1 µM | 122 mV | 122 mV | – | –
4 | O=C(NCCCCCCCCCC[P+](c1ccccc1)(c1ccccc1)c1ccccc1)c1ccc(O)c(O)c1.[Br-] | inactive | Dose-dependent effect | < 45% | Dose-dependent effect | > 80% | inactive | 44.6% | 31.1% | 97.8% | inactive | 2.4% | 19.4 µM | 68.4% | 31 µM | 210 mV | 210 mV | – | inactive
5 | CS(=O)(=O)[O-].O=C(Cc1ccc(O)c(O)c1)NCCCCCCCCCC[P+](c1ccccc1)(c1ccccc1)c1ccccc1 | – | Dose-dependent effect | – | Dose-dependent effect | > 80% | inactive | 85.2% | 85.7% | 94.5% | inactive | 10.7% | 28.1 µM | 103.4% | 56.4 µM | 122 mV | 122 mV | – | –
